Test results: ChEMBL document CHEMBL4507283, “Data for DCP probe BI-1935” (2021); call rule not given here

Assays:
[1] = molecular target: Serine/threonine-protein kinase Nek10 (Homo sapiens) (UniProt Q6ZWH5); conditions: Compound concentration 1000.0 nM
[2] = molecular target: Macrophage colony-stimulating factor 1 receptor (Homo sapiens) (UniProt P07333); conditions: Compound concentration 1000.0 nM
[3] = molecular target: 5-hydroxytryptamine receptor 1B (Homo sapiens) (UniProt P28222); conditions: Compound concentration 10.0 uM
[4] = molecular target: cGMP-inhibited 3',5'-cyclic phosphodiesterase 3A (Homo sapiens) (UniProt Q14432); assay: PDE-III/HU Eurofins-Panlabs selectivity data (BI); conditions: Compound concentration 10.0 uM
[5] = molecular target: Serine/threonine-protein kinase BRSK2 (Homo sapiens) (UniProt Q8IWQ3); conditions: Compound concentration 1000.0 nM
[6] = molecular target: Mitogen-activated protein kinase 9 (Homo sapiens) (UniProt P45984); conditions: Compound concentration 1000.0 nM
[7] = molecular target: Serine/threonine-protein kinase WNK1 (Homo sapiens) (UniProt Q9H4A3); conditions: Compound concentration 1000.0 nM
[8] = molecular target: Serine/threonine-protein kinase 3 (Homo sapiens) (UniProt Q13188); conditions: Compound concentration 1000.0 nM
[9] = molecular target: Phosphatidylinositol 4-phosphate 5-kinase type-1 gamma (Homo sapiens) (UniProt O60331); conditions: Compound concentration 1000.0 nM
Phosphatidylinositol 4-phosphate 5-kinase type-1 gamma (Homo sapiens), sequence (O60331 whole entry): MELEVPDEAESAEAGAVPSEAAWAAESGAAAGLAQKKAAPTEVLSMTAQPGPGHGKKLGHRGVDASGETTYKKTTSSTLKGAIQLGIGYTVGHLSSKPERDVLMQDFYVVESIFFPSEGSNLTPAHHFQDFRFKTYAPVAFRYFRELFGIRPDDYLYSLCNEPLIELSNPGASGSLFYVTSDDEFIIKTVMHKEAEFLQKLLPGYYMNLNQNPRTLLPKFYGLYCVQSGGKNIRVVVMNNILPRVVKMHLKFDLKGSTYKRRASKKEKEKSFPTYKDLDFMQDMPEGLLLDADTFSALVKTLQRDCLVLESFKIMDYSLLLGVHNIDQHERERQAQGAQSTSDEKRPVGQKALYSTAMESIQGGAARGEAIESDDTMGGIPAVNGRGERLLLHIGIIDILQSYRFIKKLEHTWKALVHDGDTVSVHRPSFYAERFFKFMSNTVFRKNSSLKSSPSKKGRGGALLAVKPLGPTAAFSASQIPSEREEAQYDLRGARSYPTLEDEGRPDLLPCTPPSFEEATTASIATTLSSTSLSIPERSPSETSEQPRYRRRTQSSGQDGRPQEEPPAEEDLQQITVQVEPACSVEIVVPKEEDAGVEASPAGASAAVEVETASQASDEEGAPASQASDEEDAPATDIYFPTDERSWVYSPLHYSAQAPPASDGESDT

[10] = molecular target: Phosphatidylinositol 4-kinase beta (Homo sapiens) (UniProt Q9UBF8); conditions: Compound concentration 1000.0 nM
[11] = molecular target: Activin receptor type-2B (Homo sapiens) (UniProt Q13705); conditions: Compound concentration 1000.0 nM
[12] = molecular target: Ribosomal protein S6 kinase alpha-5 (Homo sapiens) (UniProt O75582); conditions: Compound concentration 1000.0 nM
Ribosomal protein S6 kinase alpha-5 (Homo sapiens), sequence (O75582 whole entry, looked up): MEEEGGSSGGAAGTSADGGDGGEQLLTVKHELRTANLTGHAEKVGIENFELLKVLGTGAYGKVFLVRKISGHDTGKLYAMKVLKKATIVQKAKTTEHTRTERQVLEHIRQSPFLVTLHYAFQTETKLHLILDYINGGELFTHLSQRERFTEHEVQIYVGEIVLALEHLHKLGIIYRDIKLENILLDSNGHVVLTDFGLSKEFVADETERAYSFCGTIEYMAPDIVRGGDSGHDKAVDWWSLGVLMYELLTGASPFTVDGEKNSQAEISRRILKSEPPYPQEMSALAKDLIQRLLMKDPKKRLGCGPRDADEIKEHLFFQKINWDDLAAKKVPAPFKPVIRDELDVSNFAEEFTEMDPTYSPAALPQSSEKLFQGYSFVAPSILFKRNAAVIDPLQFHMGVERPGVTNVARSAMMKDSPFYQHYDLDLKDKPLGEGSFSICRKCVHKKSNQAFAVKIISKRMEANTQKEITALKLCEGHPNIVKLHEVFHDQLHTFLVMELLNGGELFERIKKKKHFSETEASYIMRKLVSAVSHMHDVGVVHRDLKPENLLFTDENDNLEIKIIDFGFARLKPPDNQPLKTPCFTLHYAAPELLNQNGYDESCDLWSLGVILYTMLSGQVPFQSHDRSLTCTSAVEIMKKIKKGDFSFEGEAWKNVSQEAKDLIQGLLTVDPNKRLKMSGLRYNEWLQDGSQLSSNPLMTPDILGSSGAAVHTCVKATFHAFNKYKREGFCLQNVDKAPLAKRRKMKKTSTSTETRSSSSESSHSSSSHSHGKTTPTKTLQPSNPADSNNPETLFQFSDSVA

[13] = molecular target: Serine/threonine-protein kinase TAO3 (Homo sapiens) (UniProt Q9H2K8); conditions: Compound concentration 1000.0 nM
Serine/threonine-protein kinase TAO3 (Homo sapiens), sequence (Q9H2K8 whole entry, the tested form may be a part): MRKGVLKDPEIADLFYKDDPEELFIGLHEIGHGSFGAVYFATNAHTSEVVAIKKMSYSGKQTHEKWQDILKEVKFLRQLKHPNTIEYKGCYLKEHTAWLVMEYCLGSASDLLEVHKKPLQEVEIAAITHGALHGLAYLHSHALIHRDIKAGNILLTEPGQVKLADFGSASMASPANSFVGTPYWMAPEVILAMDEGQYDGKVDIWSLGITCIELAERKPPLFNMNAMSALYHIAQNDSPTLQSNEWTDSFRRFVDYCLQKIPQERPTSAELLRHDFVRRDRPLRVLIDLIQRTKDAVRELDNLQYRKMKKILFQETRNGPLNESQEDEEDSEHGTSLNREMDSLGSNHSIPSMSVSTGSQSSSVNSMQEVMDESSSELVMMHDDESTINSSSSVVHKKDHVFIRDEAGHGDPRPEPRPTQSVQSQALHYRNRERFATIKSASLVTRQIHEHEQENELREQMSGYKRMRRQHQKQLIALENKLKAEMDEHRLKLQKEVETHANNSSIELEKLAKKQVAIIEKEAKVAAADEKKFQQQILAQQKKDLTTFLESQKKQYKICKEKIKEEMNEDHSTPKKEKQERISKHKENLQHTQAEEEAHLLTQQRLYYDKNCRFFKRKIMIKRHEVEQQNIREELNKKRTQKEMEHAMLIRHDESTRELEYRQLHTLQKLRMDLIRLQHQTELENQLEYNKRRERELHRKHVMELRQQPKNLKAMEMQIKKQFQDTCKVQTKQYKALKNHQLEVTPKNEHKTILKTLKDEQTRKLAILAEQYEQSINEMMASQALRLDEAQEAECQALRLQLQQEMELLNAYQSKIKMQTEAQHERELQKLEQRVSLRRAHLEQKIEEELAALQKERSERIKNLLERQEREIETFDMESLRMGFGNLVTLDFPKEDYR

[14] = molecular target: Epithelial discoidin domain-containing receptor 1 (Homo sapiens) (UniProt Q08345); conditions: Compound concentration 1000.0 nM
[15] = molecular target: Calcium-dependent protein kinase 1 (Plasmodium falciparum) (UniProt P62344); conditions: Compound concentration 1000.0 nM
[16] = molecular target: Serine/threonine-protein kinase DCLK3 (Homo sapiens) (UniProt Q9C098); conditions: Compound concentration 1000.0 nM
Serine/threonine-protein kinase DCLK3 (Homo sapiens), sequence (Q9C098 whole entry): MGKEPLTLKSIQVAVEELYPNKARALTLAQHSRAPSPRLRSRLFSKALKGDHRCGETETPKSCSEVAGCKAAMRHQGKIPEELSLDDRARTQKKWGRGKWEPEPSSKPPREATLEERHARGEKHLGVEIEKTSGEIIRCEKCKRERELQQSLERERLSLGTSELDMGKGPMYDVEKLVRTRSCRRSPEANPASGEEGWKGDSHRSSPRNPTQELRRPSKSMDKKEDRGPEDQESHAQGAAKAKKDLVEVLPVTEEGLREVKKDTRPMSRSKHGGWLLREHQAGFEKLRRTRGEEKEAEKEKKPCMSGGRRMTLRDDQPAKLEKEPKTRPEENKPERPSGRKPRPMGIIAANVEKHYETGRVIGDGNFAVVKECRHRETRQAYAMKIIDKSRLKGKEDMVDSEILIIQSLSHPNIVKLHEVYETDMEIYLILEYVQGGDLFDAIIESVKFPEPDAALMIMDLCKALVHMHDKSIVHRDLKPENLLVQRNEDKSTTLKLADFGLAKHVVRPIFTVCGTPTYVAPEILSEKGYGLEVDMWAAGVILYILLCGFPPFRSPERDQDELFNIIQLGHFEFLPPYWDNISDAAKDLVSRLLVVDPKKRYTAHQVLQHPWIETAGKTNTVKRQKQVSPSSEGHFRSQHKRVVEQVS

[17] = molecular target: TGF-beta receptor type-1 (Homo sapiens) (UniProt P36897); conditions: Compound concentration 1000.0 nM
[18] = molecular target: 1-phosphatidylinositol 3-phosphate 5-kinase (Homo sapiens) (UniProt Q9Y2I7); conditions: Compound concentration 1000.0 nM
[19] = molecular target: Activin receptor type-2A (Homo sapiens) (UniProt P27037); conditions: Compound concentration 1000.0 nM
Activin receptor type-2A (Homo sapiens), sequence (P27037 whole entry): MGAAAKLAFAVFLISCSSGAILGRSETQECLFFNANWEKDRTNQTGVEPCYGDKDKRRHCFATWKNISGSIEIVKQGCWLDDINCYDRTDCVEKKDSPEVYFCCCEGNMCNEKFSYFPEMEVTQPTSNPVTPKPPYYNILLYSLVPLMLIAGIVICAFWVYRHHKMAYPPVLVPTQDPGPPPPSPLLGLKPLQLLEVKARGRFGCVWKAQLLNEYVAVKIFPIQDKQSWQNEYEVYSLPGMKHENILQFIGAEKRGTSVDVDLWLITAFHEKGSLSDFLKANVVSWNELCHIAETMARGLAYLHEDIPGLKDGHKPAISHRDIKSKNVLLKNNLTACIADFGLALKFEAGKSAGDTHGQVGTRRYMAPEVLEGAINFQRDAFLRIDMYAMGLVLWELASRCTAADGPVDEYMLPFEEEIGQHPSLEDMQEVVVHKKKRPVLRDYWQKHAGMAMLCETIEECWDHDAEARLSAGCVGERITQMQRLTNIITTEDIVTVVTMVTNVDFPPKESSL

[20] = molecular target: Serine/threonine-protein kinase Nek5 (Homo sapiens) (UniProt Q6P3R8); conditions: Compound concentration 1000.0 nM
[21] = molecular target: MAP kinase-interacting serine/threonine-protein kinase 2 (Homo sapiens) (UniProt Q9HBH9); conditions: Compound concentration 1000.0 nM
[22] = test system: Phosphatidylinositol 4,5-bisphosphate 3-kinase catalytic subunit alpha isoform (Homo sapiens), P42336 [H1047L]; conditions: Compound concentration 1000.0 nM
[23] = molecular target: Citron Rho-interacting kinase (Homo sapiens) (UniProt O14578); conditions: Compound concentration 1000.0 nM
[24] = molecular target: Serine/threonine-protein kinase PLK2 (Homo sapiens) (UniProt Q9NYY3); conditions: Compound concentration 1000.0 nM
[25] = molecular target: Serine/threonine-protein kinase D3 (Homo sapiens) (UniProt O94806); conditions: Compound concentration 1000.0 nM
[26] = molecular target: Serine/threonine-protein kinase DCLK1 (Homo sapiens) (UniProt O15075); conditions: Compound concentration 1000.0 nM
[27] = molecular target: Myosin light chain kinase family member 4 (Homo sapiens) (UniProt Q86YV6); conditions: Compound concentration 1000.0 nM
[28] = molecular target: Cyclin-dependent kinase 9 (Homo sapiens) (UniProt P50750); conditions: Compound concentration 1000.0 nM
[29] = molecular target: Tyrosine-protein kinase ABL1 (Homo sapiens) (UniProt P00519); conditions: Compound concentration 1000.0 nM
[30] = molecular target: MAP/microtubule affinity-regulating kinase 3 (Homo sapiens) (UniProt P27448); conditions: Compound concentration 1000.0 nM
[31] = molecular target: Serine/threonine-protein kinase MAK (Homo sapiens) (UniProt P20794); conditions: Compound concentration 1000.0 nM
[32] = molecular target: D(1A) dopamine receptor (Homo sapiens) (UniProt P21728); assay: D1/HU Eurofins-Panlabs selectivity data (BI); conditions: Compound concentration 10.0 uM
D(1A) dopamine receptor (Homo sapiens), sequence (P21728 whole entry): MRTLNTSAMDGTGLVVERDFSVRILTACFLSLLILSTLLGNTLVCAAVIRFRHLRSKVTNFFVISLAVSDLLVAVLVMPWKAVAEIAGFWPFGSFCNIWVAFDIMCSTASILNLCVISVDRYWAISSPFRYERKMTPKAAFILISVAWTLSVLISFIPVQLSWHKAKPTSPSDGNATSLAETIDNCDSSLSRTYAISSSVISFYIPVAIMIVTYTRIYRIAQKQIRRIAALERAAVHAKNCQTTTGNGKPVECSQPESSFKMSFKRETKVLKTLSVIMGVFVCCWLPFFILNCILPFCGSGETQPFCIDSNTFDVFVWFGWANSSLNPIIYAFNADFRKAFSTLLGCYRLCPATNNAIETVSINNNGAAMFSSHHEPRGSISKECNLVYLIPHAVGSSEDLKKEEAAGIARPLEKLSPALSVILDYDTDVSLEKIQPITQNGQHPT

[33] = molecular target: Sigma non-opioid intracellular receptor 1 (Homo sapiens, UniProt Q99720); assay: GPCRScan assay: inhibition of Sigma 1; design: radioligand conc. used [nm] 4.0 – 5.0, parental cells HEKT
[34] = molecular target: Atypical kinase COQ8B, mitochondrial (Homo sapiens) (UniProt Q96D53); conditions: Compound concentration 1000.0 nM
[35] = molecular target: Cyclin-dependent kinase 8 (Homo sapiens) (UniProt P49336); conditions: Compound concentration 1000.0 nM
Cyclin-dependent kinase 8 (Homo sapiens), sequence (P49336 whole entry): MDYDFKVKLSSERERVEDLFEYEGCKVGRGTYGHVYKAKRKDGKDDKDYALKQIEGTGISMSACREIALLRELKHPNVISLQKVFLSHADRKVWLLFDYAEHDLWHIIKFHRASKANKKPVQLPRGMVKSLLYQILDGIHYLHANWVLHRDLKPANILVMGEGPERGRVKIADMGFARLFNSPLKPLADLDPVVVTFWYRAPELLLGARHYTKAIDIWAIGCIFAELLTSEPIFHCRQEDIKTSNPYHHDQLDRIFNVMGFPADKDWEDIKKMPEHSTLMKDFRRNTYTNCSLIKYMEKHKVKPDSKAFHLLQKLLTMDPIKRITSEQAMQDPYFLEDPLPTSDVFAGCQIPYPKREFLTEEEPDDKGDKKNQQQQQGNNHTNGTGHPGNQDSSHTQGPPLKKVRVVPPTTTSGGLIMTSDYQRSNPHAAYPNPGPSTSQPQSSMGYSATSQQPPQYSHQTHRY

[36] = molecular target: Serine/threonine-protein kinase 38 (Homo sapiens) (UniProt Q15208); conditions: Compound concentration 1000.0 nM
[37] = molecular target: Serine/threonine-protein kinase ULK1 (Homo sapiens) (UniProt O75385); conditions: Compound concentration 1000.0 nM
[38] = molecular target: Cyclin-dependent kinase-like 3 (Homo sapiens) (UniProt Q8IVW4); conditions: Compound concentration 1000.0 nM
[39] = molecular target: Serine/threonine-protein kinase WNK2 (Homo sapiens) (UniProt Q9Y3S1); conditions: Compound concentration 1000.0 nM
[40] = molecular target: Calcium/calmodulin-dependent protein kinase type II subunit alpha (Homo sapiens) (UniProt Q9UQM7); conditions: Compound concentration 1000.0 nM
Calcium/calmodulin-dependent protein kinase type II subunit alpha (Homo sapiens), sequence (Q9UQM7 whole entry): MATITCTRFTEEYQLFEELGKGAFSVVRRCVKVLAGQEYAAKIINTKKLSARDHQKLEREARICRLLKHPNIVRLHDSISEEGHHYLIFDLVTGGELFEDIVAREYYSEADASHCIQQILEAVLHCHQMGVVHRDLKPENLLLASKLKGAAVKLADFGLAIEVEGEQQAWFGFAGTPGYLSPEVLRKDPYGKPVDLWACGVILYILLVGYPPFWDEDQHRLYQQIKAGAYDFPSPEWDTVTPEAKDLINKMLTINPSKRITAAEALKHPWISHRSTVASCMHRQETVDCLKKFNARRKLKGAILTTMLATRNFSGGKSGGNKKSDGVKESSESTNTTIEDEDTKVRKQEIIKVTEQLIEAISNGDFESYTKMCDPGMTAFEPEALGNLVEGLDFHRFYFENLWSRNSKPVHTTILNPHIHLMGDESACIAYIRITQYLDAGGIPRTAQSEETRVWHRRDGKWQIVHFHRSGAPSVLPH

[41] = test system: Mast/stem cell growth factor receptor Kit (Homo sapiens), P10721 [V559D,V654A]; conditions: Compound concentration 1000.0 nM
[42] = molecular target: Voltage-dependent L-type calcium channel subunit alpha-1C (phenylalkylamine site) (Rattus norvegicus, UniProt P22002); assay: CA+/PAASITE Eurofins-Panlabs selectivity data (BI); conditions: compound concentration 10 uM, read-out: % Ctrl
[43] = molecular target: Mitogen-activated protein kinase kinase kinase 6 (Homo sapiens) (UniProt O95382); conditions: Compound concentration 1000.0 nM
[44] = test system: Proto-oncogene tyrosine-protein kinase receptor Ret (Homo sapiens), P07949 [V804L]; conditions: Compound concentration 1000.0 nM

Compound CCOCCn1cc(C(=O)Nc2ccc(-n3nc(-c4cccnc4)cc3C(F)(F)F)cn2)ccc1=O [BI 1935] has a residual activity [1] of 94%, a residual activity [2] of 100% and an inhibition [3] of 18.8%. It also gave a residual activity [4] of 85%, a residual activity [5] of 100% and a residual activity [6] of 97%. It also gave a residual activity [7] of 82%, a residual activity [8] of 100% and a residual activity [9] of 100%. It also gave a residual activity [10] of 100%, a residual activity [11] of 100% and a residual activity [12] of 100%. It also gave a residual activity [13] of 66%, a residual activity [14] of 69% and a residual activity [15] of 71%. For the same compound, the residual activity [16] was 100%, the residual activity [17] was 100% and the residual activity [18] was 97%. The residual activity [19] was 100%, the residual activity [20] was 100% and the residual activity [21] was 100%. For the same compound, the residual activity [22] was 93%, the residual activity [23] was 97% and the residual activity [24] was 88%. The residual activity [25] was 81%, the residual activity [26] was 83% and the residual activity [27] was 100%. For the same compound, the residual activity [28] was 97%, the residual activity [29] was 94% and the residual activity [30] was 100%. The residual activity [31] was 89%, the residual activity [32] was 110% and the Ki [33] was 6.28 µM. It also gave a residual activity [34] of 100%, a residual activity [35] of 100% and a residual activity [36] of 91%. The residual activity [37] was 76%, the residual activity [38] was 84% and the residual activity [39] was 64%. For the same compound, the residual activity [40] was 93%, the residual activity [41] was 100% and the activity at 10 µM [42] was 88.5% (not active). It also gave a residual activity [43] of 86% and a residual activity [44] of 97%.
